Assay results published in patent publication US10351522B2, “Sulfonamide derivative and pharmaceutically acceptable acid addition salt thereof” (UNIVERSITY OF TSUKUBA, priority 2015, dated 2019).

Assays:
human OX2R = biological target: T1, human OX2R (Homo sapiens, UniProt O43614); assay: Agonist activity against OX2R: intracellular calcium (Fura-2AM, FDSS7000) in CHOOX2R cells; assay type: cell-based; conditions: relative to orexin-A as full agonist (100%)
T1 construct: expressed in transfected cells; host or cells: CHO (Chinese hamster ovary) cells, line CHOOX2R, co-expressing NFAT-luciferase
T1 sequence (O43614 1-444): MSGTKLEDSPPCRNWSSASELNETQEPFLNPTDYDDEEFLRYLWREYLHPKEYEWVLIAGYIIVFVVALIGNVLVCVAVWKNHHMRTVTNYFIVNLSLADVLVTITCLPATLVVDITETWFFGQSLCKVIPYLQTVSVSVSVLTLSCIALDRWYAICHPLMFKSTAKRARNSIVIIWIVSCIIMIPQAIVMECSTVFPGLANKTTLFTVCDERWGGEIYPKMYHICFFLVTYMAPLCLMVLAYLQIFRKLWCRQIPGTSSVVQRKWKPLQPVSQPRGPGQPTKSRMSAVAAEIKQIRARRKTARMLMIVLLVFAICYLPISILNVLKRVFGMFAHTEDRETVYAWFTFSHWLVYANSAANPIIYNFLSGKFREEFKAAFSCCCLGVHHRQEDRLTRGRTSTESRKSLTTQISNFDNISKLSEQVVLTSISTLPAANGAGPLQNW
In short: (§1)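 CHO cells stably expressing human OX1R or OX2R (plus NFAT-luciferase) were loaded with 5 μM Fura-2AM for 60 min, then given compound at 10^−7 to 10^−5 M final (1% DMSO). Calcium change read as 340/380 nm excitation fluorescence ratio; response expressed as % of orexin-A maximal activity at 10, 1.0 and 0.1 μM.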

C57BL/6 wild-type mouse = assay: Awakening effect on wild-type mouse by light period intraventricular administration (EEG/EMG hypnogram); assay type: in vivo; conditions: 10 nmol intraventricular at ZT6 (light period), hypnogram for 3 hr
Description: Awakening Effect on Wild-Type Mouse by Light Period Intraventricular Administration of the Compound of the Present Invention
As the experiment animal, C57BL/6 lineage wild-type mouse (male) was used. The mice before and after 9-week-old (±1 week) underwent surgery for embedding electroencephalogram electrodes into the skull (Bregma: X=1.5; Y=0.6, Lambda: X=1.5; Y=0) and inserting electromyogram electrodes into the trapezius muscle under isoflurane anesthesia. The mice for intraventricular administration also underwent cannula embedding into lateral cerebral ventricle (Bregma: X=−0.9; Y=−0.3). From two weeks thereafter, the administration and electroencephalogram measurement were started. The experiment was conducted under a light-dark cycle environment in which the light period started at 9 (ZT0) and the dark period started at 21 (ZT12).
The test compound (compound of Example 40) (10 nmol; dissolved in 5% chromophore-containing saline) (5 μl) was injected at ZT6 into the lateral cerebral ventricle of wild-type mice under isoflurane anesthesia through cannula by using a microsyringe pump at a flow rate of 0.5 μl/min, and electroencephalogram and electromyogram was measured thereafter. The administration was started with 5% chromophore-containing saline (Vehicle) as a control, and then the test compound was administered. […]

human OX1R = biological target: T2, human OX1R (Homo sapiens, UniProt O43613); assay: Agonist activity against OX1R: intracellular calcium (Fura-2AM, FDSS7000) in CHOOX1R cells; assay type: cell-based; conditions: relative to orexin-A as full agonist (100%); for Emax at 0.1 µM / Emax at 1 µM / Emax at 10 µM: read-out: Response (%) OX1R
T2 construct: expressed in transfected cells; host or cells: CHO (Chinese hamster ovary) cells, line CHOOX1R, co-expressing NFAT-luciferase
T2 sequence (O43613 1-425): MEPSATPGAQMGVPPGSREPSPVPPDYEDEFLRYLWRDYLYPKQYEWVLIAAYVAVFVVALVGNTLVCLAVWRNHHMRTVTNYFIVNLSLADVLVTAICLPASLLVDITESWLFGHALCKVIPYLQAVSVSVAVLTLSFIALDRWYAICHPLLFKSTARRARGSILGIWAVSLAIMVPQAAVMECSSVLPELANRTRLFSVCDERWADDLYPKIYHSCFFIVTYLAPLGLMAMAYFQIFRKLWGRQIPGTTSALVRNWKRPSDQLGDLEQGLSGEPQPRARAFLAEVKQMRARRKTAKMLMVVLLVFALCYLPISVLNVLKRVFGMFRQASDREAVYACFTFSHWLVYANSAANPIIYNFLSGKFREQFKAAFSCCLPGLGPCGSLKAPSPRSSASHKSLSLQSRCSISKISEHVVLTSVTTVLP
In short: as §1

Structure (SMILES)	Response (%) OX2R (human OX2R; 0.1 μM test compound)	Response (%) OX2R (human OX2R; 1.0 μM test compound)	Response (%) OX2R (human OX2R; 10 μM test compound)	conscious time compared to Vehicle administration (C57BL/6 wild-type mouse)	Emax at 0.1 µM (human OX1R; 0.1 μM test compound)	Emax at 1 µM (human OX1R; 1.0 μM test compound)	Emax at 10 µM (human OX1R; 10 μM test compound)	Response (%) OX1R (human OX1R; 0.1 μM test compound)	Response (%) OX1R (human OX1R; 1.0 μM test compound)	Response (%) OX1R (human OX1R; 10 μM test compound)
COc1ccc(-c2cccc(C(=O)N(C)C)c2)cc1S(=O)(=O)Nc1cccc(NC(=O)Nc2cccc(N(C)C)c2)c1 [Example 40, 3′-(N-(3-(3-(3-(dimethylamino)phenyl)ureido)phenyl)sulfamoyl)-4′-methoxy-N,N-dimethyl-[1,1′-biphenyl]-3-carboxamide]	77%	60%	52%	increased	< 5%	< 5%	< 5%			
COc1ccc(-c2cccc(C(=O)N(C)C)c2)cc1S(=O)(=O)Nc1cccc(NC(=S)Nc2ccccc2)c1 [Example 75, 4′-methoxy-N,N-dimethyl-3′-(N-(3-(3-phenylthioureido)phenyl)sulfamoyl)-[1,1′-biphenyl]-3-carboxamide]	61%	94%	95%		< 5%	< 5%	30%			
COc1ccc(-c2cccc(C(=O)N(C)C)c2)cc1S(=O)(=O)Nc1cccc(NC(=O)Nc2cccc(C(=O)N(C)C)c2)c1 [Example 49]	26%	89%	92%					<5%	<5%	<5%
